Laboratory results taken from patent US20190231791A1, “Combination Therapy” (Eli Lilly and Company, priority 2016, published 2019).
pIC50: −log10 of the molar value. Like-named read-outs stand apart in the source and are kept apart here.

Assays:
human BACE2 (1-460):Fc = target: T1, human BACE2 (1-460):Fc (Homo sapiens, UniProt Q9Y5Z0); assay: BACE2 MBP-C125Swe assay; format: biochemical
T1 construct: 10 μL of 200 picomolar human BACE2 (1-460):Fc in the same reaction buffer; made in house; host or cells: HEK293 (transient transfection, purified from conditioned media by Protein A)
T1 sequence (Q9Y5Z0 21-460): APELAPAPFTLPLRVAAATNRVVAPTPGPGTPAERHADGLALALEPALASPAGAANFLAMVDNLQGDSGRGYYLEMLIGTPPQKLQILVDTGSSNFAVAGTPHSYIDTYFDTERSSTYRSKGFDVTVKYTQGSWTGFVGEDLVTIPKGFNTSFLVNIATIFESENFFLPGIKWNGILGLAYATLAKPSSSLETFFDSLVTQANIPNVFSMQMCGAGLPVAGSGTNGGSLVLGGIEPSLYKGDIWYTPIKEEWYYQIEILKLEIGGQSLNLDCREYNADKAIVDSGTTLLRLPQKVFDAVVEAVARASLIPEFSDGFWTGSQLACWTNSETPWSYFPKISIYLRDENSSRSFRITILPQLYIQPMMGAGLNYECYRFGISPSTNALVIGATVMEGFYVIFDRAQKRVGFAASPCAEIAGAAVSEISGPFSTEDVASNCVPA
Procedure: (§1) To assess selectivity of BACE1 over BACE2, the test compound is evaluated in FRET and immunoassay detection base enzymatic assays using specific substrates for BACE1 and BACE2 as described below. For in vitro enzymatic and cellular assays, the test compound is prepared in DMSO to make up a 10 mM stock solution. The stock solution is serially diluted in DMSO to obtain a ten-point dilution curve with final compound concentrations ranging from 10 μM to 0.05 nM in a 96-well round-bottom plate before conducting the in vitro enzymatic and whole cell assays.
Human BACE1 (accession number: AF190725) and human BACE2 (accession number: AF 204944) are cloned from total brain cDNA by RT-PCR. The nucleotide sequences corresponding to amino acid sequences #1 to 460 are inserted into the cDNA encoding human IgG1 (Fc) polypeptide (Vassar et al., Science, 286, 735-742 (1999)). This fusion protein of BACE1(1-460) or BACE2(1-460) and human Fc, named huBACE1:Fc and huBACE2:Fc respectively, are constructed in the pJB02 vector. […]
Conditioned media of HEK293 cells transiently transfected with huBACE1:Fc or huBACE2:Fc cDNA are collected. […] The purity of final product is assessed by electrophoresis in 4-20% Tris-Glycine SDS-PAGE. […]
10 point serial dilutions of test compounds are prepared in the appropriate range. […] The amount of product is measured by ELISA using MBP-C26swe standard. […]

BACE1 = target: T2, BACE1 (Homo sapiens, UniProt P56817); assay: SH-SY5YAPP695Wt whole cell assay (Abeta ELISA); format: cell-based; conditions: 24 hours incubation
T2 construct: endogenous in cells; host or cells: SH-SY5Y (ATCC CRL2266) stably expressing human APP695Wt
T2 sequence (P56817 46-501): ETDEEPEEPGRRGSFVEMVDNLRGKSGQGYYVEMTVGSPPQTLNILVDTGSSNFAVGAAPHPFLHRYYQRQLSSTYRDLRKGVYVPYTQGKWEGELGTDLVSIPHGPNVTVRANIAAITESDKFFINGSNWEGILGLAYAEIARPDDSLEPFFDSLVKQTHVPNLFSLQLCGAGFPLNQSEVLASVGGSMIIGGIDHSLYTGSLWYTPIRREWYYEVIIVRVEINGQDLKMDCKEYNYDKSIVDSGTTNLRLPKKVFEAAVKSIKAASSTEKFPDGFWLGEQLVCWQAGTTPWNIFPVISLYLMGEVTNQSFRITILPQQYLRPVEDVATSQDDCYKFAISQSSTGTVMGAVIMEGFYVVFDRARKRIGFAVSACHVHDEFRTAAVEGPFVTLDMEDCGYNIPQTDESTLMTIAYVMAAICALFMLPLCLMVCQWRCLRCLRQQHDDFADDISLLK
Procedure: as §1
The routine whole cell assay for the measurement of inhibition of BACE1 activity utilizes the human neuroblastoma cell line SH-SYSY (ATCC Accession No. CRL2266) stably expressing a human APP695Wt cDNA. Cells are routinely used up to passage number 6 and then discarded.
SH-SY5YAPP695Wt cells are plated in 96 well tissue culture plates at 5.0×10^4 cells/well in 200 μL culture media (50% MEM/EBSS and Ham's F12, 1× each sodium pyruvate, non-essential amino acids and NaHCO3 containing 10% FBS). […]
At the end of the incubation, conditioned media are analyzed for evidence of beta-secretase activity by analysis of Abeta peptides 1-40 and 1-42 by specific sandwich ELISAs. […]

beta-secretase = target: T3, beta-secretase (Mus musculus, UniProt P56818); assay: In vivo inhibition of beta-secretase, brain Abeta 1-x in PDAPP mice; conditions: young female PDAPP mice, three hours after dosing, vs vehicle, p<0.01
T3 construct: from tissue; host or cells: brain (hippocampus, cortex) of young female PDAPP mice, in vivo dosing
T3 sequence (P56818 46-501): as the sequence (P56817 46-501) above, with P6S, V162I, L165I, S180T, V182A, I340V, L393A, Q443H counted along it
Description: Several animal models, including mouse, guinea pig, dog, and monkey, may be used to screen for inhibition of beta-secretase activity in vivo following compound treatment. Animals used in this invention can be wild type, transgenic, or gene knockout animals. For example, the PDAPP mouse model, prepared as described in Games et al., Nature 373, 523-527 (1995), and other non-transgenic or gene knockout animals are useful to analyze in vivo inhibition of Abeta and sAPPbeta production in the presence of inhibitory compounds. Generally, 2 month old PDAPP mice, gene knockout mice or non-transgenic animals are administered compound formulated in vehicles, such as corn oil, beta-cyclodextran, phosphate buffers, PHARMASOLVE®, or other suitable vehicles via oral, subcutaneous, intra-venous, feeding, or other route of administration. 1 to 24 hours following the administration of compound, animals are sacrificed, and brains are removed for analysis of Abeta 1-x. “Abeta 1-x” as used herein refers to the sum of Abeta species that begin with residue 1 and end with a C-terminus greater than residue 28. This detects the majority of Abeta species and is often called “total Abeta”. Total Abeta peptides (Abeta 1-x) levels are measured by a sandwich ELISA, using monoclonal 266 as a capture antibody and biotinylated 3D6 as reporting antibody. (See May, et al., Journal of Neuroscience, 31, 16507-16516 (2011)).
For acute studies, compound or appropriate vehicle is administered and animals are sacrificed at about 3 hours after dosing. Brain tissue, is obtained from selected animals and analyzed for the presence of Abeta 1-x. After chronic dosing brain tissues of older APP transgenic animals may also be analyzed for the amount of beta-amyloid plaques following compound treatment.
For example, a 0.1, 0.3, and 1 mg/kg oral dose of Example 1, to young female PDAPP mice reduced Abeta 1-x peptide levels in brain hippocampus by 32%, 40%, and 55% (all values p<0.01), respectively.

CC(F)(F)[C@H]1OC[C@]2(c3cc(NC(=O)c4ccc(C#N)cn4)ccc3F)N=C(N)SC[C@H]12 [Example 1, N-[3-[(4aS,5S,7aS)-2-Amino-5-(1,1-difluoroethyl)-4,4a,5,7-tetrahydrofuro[3,4-d][1,3]thiazin-7a-yl]-4-fluoro-phenyl]-5-cyano-pyridine-2-carboxamide]
selectivity for BACE1 over BACE2 (BACE2 IC50 / BACE1 IC50) (human BACE2 (1-460):Fc): approximately 35 fold | pIC50 (BACE1; ± 0.048, n=4, read-out: IC50 for SH-SY5YAPP695Wt A-beta (1-40) ELISA): 9.80 | pIC50 (BACE1; ± 0.050, n=4, read-out: IC50 for SH-SY5YAPP695Wt A-beta (1-42) ELISA): 9.75 | reduction of Abeta 1-x levels in brain cortical tissue (beta-secretase; 0.1 mg/kg oral): 38% | reduction of Abeta 1-x peptide levels in brain hippocampus (beta-secretase; 0.1 mg/kg oral): 32% | reduction of Abeta 1-x levels in brain cortical tissue (beta-secretase; 0.3 mg/kg oral): 50% | reduction of Abeta 1-x peptide levels in brain hippocampus (beta-secretase; 0.3 mg/kg oral): 40% | reduction of Abeta 1-x levels in brain cortical tissue (beta-secretase; 1 mg/kg oral): 67% | reduction of Abeta 1-x peptide levels in brain hippocampus (beta-secretase; 1 mg/kg oral): 55%
